Patent US12161694B2, “Methods and compositions for regulating innate lymphoid cell inflammatory responses” (The Broad Institute, Inc., priority 2017, dated 2024)
“Also recorded” adds a separate entry of the source. Where no end group is shown, it is not given here.

Tested on: IL-5 and IL-13 in lung and BALF
Test: In vivo ILC activation (intranasal), lung analysis: Il5, Il13, Il17rb mRNA in lung mononuclear cells (qPCR), IL-5/IL-13 in BALF (LegendPlex)
Set-up: species or system mouse
Protocol: Mice and in vivo ILC activation. C57Bl/6J mice were purchased from the Jackson Laboratory. Nmur1-LacZ reporter mice with a LacZ cassette knocked into the Nmur1 locus were rederived from Nmur1^tm1.1(KOMP)Vleg sperm obtained from the trans-NIH Knock-Out Mouse Project (KOMP) Repository. Mice were housed under specific-pathogen-free conditions. For experiments, mice were matched for sex and age, and most mice were 6-10 weeks old. […] The total administered volume was 20 μl for all conditions. Mice were randomly assigned to treatment groups after matching for sex and age. […] Mice were treated intranasally with 10 μg HDM on day 0, 7, 8, and 9, prior to sacrifice on day 10. All experiments were conducted in accordance with animal protocols approved by the Harvard Medical Area Standing Committee on Animals or BWH IACUC.
Lung analysis. Mice were sacrificed and perfused with cold PBS. Where indicated, after perfusion, broncho alveolar lavage (BAL) was obtained by injecting 1.5 ml cold PBS into the lungs via a secured tracheal cannula. BALF was centrifuged, and the supernatant was used for analyzing cytokine levels and the cell pellet was resuspended, counted, and used for flow cytometry. Following BAL, lung lobes were dissected. The post-caval lobe was fixed in buffered formalin for histological analysis. Single cell suspensions of the remaining lung parenchymal tissue were prepared with the GentleMACS lung dissociation kit (Miltenyi Biotec) according to the manufacturer's instructions. Where indicated, cells were diluted in 10% Trypan Blue and viable cells counted using a hemocytometer.
Quantitative real-time PCR. RNA was isolated using RNeasy Plus Mini Kit (Qiagen) and reverse transcribed to cDNA with iScript cDNA Synthesis Kit (Bio-Rad). Gene expression was analyzed by quantitative real-time PCR on a ViiA7 System (Thermo Fisher Scientific) using TaqMan Fast Advanced Master Mix (Thermo Fisher Scientific) with the following primer/probe sets: IL-5 (Mm00439646_m1), IL-13 (Mm00434204_m1), IL-17RB (Mm00444709_m1), Nmur1 (Mm04207994 m1), Nmur2 (Mm00600704_m1), and β-Actin (Applied Biosystems). Expression values were calculated relative to β-Actin detected in the same sample by duplex qPCR.
Cytokine quantification. Cytokine concentrations in BAL fluid, lung and supernatant of in vitro ILC cultures were analyzed by the LegendPlex Mouse Th Cytokine Panel (13-plex) (BioLegend) according to the manufacturer's instructions and analyzed on a FACS Calibur (BD Biosciences).
Mice and in vivo ILC activation. C57Bl/6J mice were purchased from the Jackson Laboratory. Nmur1-LacZ reporter mice with a LacZ cassette knocked into the Nmur1 locus were rederived from Nmur1^tm1.1(KOMP)Vleg sperm obtained from the trans-NIH Knock-Out Mouse Project (KOMP) Repository. NMU-deficient mice (NMU-KO) were rederived from B6.129S2-Nmu<tm1Mko> embryos from the RIKEN BioResource Center. For experiments with Nmur1-LacZ (Nmur1-KO) and NMU-KO mice, littermates that were either homozygous or heterozygous for the wild type allele were used as controls. Mice were housed under specific-pathogen-free conditions. For experiments, mice were matched for sex and age, and most mice were 6-10 weeks old. […] The total administered volume was 20 μl for all conditions. Mice were randomly assigned to treatment groups after matching for sex and age. […]
Lung analysis. […] BALF was centrifuged, and the supernatant was used for analyzing cytokine levels and the cell pellet was resuspended, counted, and used for flow cytometry. […]

In the case of “Neuromedin U (FRVDEEFQSPFASQSRGYFLFRPRN-NH2; listed as Homo sapiens) [NMU, neuropeptide ligand of Nmur1 (US Biological)]”, the “IL-33-induced lung inflammation with NMU” value (250 ng IL-33 and 10 μg NMU (FIG. 11)) is reported as “little impact; also recorded: does not significantly amplify”, the “allergic lung inflammation induced by the substance alone” value (NMU 20 μg intranasally for 3 consecutive days, no alarmin) is reported as “little effect; also recorded: minimal” and the “IL-5 protein in BALF” value (NMU alone 20 μg intranasally for 3 days, LegendPlex) is reported as “only trace quantities”. For the same substance, the “IL-25-induced allergic airway inflammation with NMU” value (NMU co-administered with IL-25) was “dramatically enhanced; also recorded: amplifies” and the “Il5 and Il13 mRNA expression in lung (lung mononuclear cells)” value (intranasal daily for 3 days (500 ng IL-25, 20 μg NMU), qPCR) was “did not cause a significant increase”.
